According to patent US20030220402A1, “Cancer remedy comprising anthranilic acid derivatives as active ingredients” (priority 2000, published 2003):

System: L929 cells
Assay: Measurement of cytotoxicity using mouse tumorous cells L929 (Neutral Red assay)
Type: cell-based
Details: 3 days culture, concentration manifesting 50% cytotoxicity
Experimental: Measurement of Cytotoxicity Using Mouse Tumorous Cells L929
The cytotoxic activity against tumorous cells was measured according to a Neutral Red assay method [the method described in Journal of Tissue Culture Methodology, vol. 9, p. […] 24, p. […] Namely, 100 μL each of L929 cells (5×10^4 cells/mL, 10% FCS/RPM1) was added to a 96-well ELISA plate, and the cells were cultured overnight. The test compound at each measuring concentration was dissolved in a DMSO solution and added, and culturing was further continued for 3 days. To the cultured cells, was then added 2.0 μL of Neutral Red so as to provide the final concentration of 0.01%. Incubation was conducted at 37° C. for 1 hour, and the cell culture supernatant was removed. The resultant cultured cells were washed with […] of PBS twice to remove the excessive Neutral Red. To the washed cells, was then added 100 μL of a 50% ethanol-1% aqueous acetic acid. The dye incorporated in the cells was extracted, and the amount of the dye was determined by measuring the absorbance at 490 nm. The case where a drug was not added was taken as 100%, and the cytotoxicity was determined at the concentrations of the respective test compounds. […] The measurements under the same conditions in two sets each were made, and the data were, obtained from the average values.

Row | Structure (SMILES) | LD50 [µM]
1 | O=C(Cc1ccc(Oc2ccc3ccccc3c2)cc1)Nc1ccccc1C(=O)O [Compound No. 59, 2-(4-(2-naphthyloxy)phenylacetamido)benzoic acid] | 1.6
2 | COC(=O)c1ccccc1NC(=O)Cc1ccc(Oc2ccc(O)cc2)cc1 [Compound No. 296, methyl 2-(4-(4-hydroxyphenoxy)phenylacetamido)benzoate] | >5
3 | O=C(Cc1ccc(Oc2ccc(OCc3ccccc3)cc2)cc1)Nc1ccccc1C(=O)O [Compound No. 316, 2-(4-(4-benzyloxyphenoxy)phenylacetamido)benzoic acid] | 0.60
4 | O=C(Cc1ccc(Oc2ccc(OC3CCCCC3)cc2)cc1)Nc1ccccc1C(=O)O [compound 288, 2-(4-(4-cyclohexyloxyphenoxy)phenylacetamido)benzoic acid] | 0.20
